In PMC3227451, “Structure-based development of novel sirtuin inhibitors” (Aging (Albany NY), 2011):
Where two headings read alike, the source gives them in different places.

Assays:
Assay type in all cases: biochemical
Sirt3 = target: T1, Sirt3 (Homo sapiens, UniProt Q9NTG7); test: Fluor-de-Lys peptide deacetylation assay, Sirt3
T1 construct: Sirt3 residues 114-399; His-tag with linker comprising a TEV protease cleavage site (N); made in house; host or cells: E. coli
T1 sequence (Q9NTG7 114-399): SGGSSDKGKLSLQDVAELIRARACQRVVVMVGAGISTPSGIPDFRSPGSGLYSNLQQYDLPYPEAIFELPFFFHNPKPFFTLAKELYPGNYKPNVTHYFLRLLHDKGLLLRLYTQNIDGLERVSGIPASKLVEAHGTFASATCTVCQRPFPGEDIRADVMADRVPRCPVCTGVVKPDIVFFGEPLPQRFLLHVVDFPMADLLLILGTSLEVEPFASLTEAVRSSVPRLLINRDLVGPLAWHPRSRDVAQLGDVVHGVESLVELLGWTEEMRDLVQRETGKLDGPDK
Experimental: (§1) Sirt3 was expressed in E. coli and purified via Ni-NTA and size exclusion chromatography as described elsewhere, and Sirt5 according to the protocol of Schuetz et al.. […] The protein was bound to the HiTrapQ column in buffer A and eluted in a gradient to buffer A supplemented with 400 mM KCl. Fractions were analyzed by SDS-PAGE, and the Sirt1 fractions were pooled and transferred into buffer A using a NAP column (GE Healthcare).
(§2) The commercial Fluor-de-Lys (FdL) assay kits 1 and 2 (Biomol, Plymouth Meeting, USA) were used to test the deacetylase activity of the four Sirtuins. In both kits the substrate derived from p53 is composed of three amino acids, the acetyl lysine and a C-terminally attached fluorophor. For Sirt2 and 3, FdL-2 peptide (QPK(acetyl-K)) was used, and FdL-1 peptide (RHK(acetyl-K)) for Sirt5 and Sirt6. All tests were done with 0.1 mM of the respective FdL peptide and 0.5 mM NAD^+ as substrates.
(§3) NCI compound stocks were prepared by dissolving them in DMSO at a concentration of 5 mM. The initial screens with all 40 compounds contained 5 μl Sirtuin solution (Sirt2/3 0.1 mg/ml stock concentration; Sirt5/6 1 mg/ml), 1 μl of compound stock (resulting in a 100 μM end concentration), 15 μl FdL substrate, and assay buffer (supplied in the assay kit) to a total volume of 50 μl. As control reactions, peptide with either the compound (without Sirtuin) or with Sirtuin and DMSO instead of compound were measured. After starting the reactions by adding the FdL substrate, assays were incubated for 30 min at 37 °C. Subsequently, 50 μl of a 10 mg/ml trypsin stock (“Developer solution”) were added and the reactions were incubated for 45 min at room temperature. Fluorescence values were measured in a fluorometric plate reader with excitation at 360 nm and read out at 485 nm. Values were then corrected with the control reaction (same compound, but without Sirtuin).
(§4) All measurements shown are averages of duplicates (screen) or triplicates (dose-response curves), and representatives of at least two independent replications. Error bars indicate standard deviations.

Sirt2 = target: T2, Sirt2 (Homo sapiens, UniProt Q8IXJ6); test: Fluor-de-Lys peptide deacetylation assay, Sirt2
T2 sequence (Q8IXJ6 34-356): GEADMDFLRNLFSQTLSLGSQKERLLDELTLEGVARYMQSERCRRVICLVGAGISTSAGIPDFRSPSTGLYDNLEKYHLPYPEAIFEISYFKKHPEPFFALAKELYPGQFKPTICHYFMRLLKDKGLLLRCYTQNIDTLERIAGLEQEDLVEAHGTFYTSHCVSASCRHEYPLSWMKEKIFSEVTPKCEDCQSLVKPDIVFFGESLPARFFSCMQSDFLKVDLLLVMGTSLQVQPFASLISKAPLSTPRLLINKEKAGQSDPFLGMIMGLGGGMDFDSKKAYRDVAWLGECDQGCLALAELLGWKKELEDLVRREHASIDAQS
Experimental: The Sirt2 construct was expressed in E. coli Rosetta2 cells (Merck) in LB/Ampicillin/Chloramphenicol medium. Cells were grown at 37 °C, and expression induced at an OD600 of 0.6-0.8 for 4 h with 0.5 mM IPTG. Harvested cells were resuspended in buffer A (50 mM Tris/HCl pH 7.8, 200 mM NaCl, 2 mM DTT), disrupted with a Sonifier, and cell debris removed by 40 min centrifugation at 4 °C, 18000 rpm in a HFA22.50 rotor. The supernatant was supplemented with 10 mM imidazole and incubated with Ni-NTA resin for 1 h at 4 °C. […] The protein was concentrated in an amicon unit (Millipore, Billerica, USA) and digested over night at 4 °C with TEV-protease. The protease was removed from cleaved Sirt2 by incubation with Ni-NTA resin for 1 h at 4 °C. The protein was concentrated, 1:5 diluted with 50 mM Tris/HCl, pH 7.8, and applied to a HiTrap Q anion exchange column (GE Healthcare) equilibrated with 50 mM Tris/HCl, pH 7.8, 50 mM NaCl, 2 mM DTT and eluted with a gradient (20 column volumes) to 50 mM Tris/HCl, pH 7.8, 1 M NaCl, 2 mM DTT. Sirt2 was then applied to a Superdex200 gel filtration column (GE Healthcare) equilibrated in 20 mM Tris/HCl, pH 7.8, 150 mM NaCl, 2 mM DTT. The eluted protein was analyzed by SDS-PAGE, re-concentrated, and shock-frozen in liquid nitrogen for storage at -80 °C.
as §2, §3, §4

Sirt6 = target: T3, Sirt6 (Homo sapiens, UniProt Q8N6T7); test: Fluor-de-Lys peptide deacetylation assay, Sirt6
T3 construct: Sirt6 residues 13-308; His-tag with linker comprising a TEV protease cleavage site (N, cleaved yes); made in house; host or cells: E. coli Rosetta2
T3 sequence (Q8N6T7 13-308): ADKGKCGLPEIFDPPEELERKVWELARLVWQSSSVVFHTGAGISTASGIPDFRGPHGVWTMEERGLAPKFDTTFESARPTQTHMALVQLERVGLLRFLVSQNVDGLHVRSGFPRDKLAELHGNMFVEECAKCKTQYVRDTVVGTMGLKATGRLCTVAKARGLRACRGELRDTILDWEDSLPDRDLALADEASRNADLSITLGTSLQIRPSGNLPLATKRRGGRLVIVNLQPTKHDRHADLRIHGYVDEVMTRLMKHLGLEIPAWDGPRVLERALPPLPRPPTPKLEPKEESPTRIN
Experimental: as §2, §3, §4

Sirt5 = target: T4, Sirt5 (Homo sapiens, UniProt Q9NXA8); test: Fluor-de-Lys peptide deacetylation assay, Sirt5
T4 construct: Sirt5 residues 34-302; His-tag with linker comprising a TEV protease cleavage site (N); made in house
T4 sequence (Q9NXA8 34-302): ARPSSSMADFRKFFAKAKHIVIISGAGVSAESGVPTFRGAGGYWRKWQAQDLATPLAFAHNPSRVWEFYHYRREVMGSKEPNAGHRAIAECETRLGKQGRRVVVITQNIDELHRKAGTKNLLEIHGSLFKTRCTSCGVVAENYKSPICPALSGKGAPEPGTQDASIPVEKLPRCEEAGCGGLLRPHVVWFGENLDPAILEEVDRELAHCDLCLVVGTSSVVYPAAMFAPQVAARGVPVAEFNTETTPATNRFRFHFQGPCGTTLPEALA
Experimental: as §1, §2, §3, §4

[1] = 100 μM compound, 0.1 mM FdL-2 peptide, 0.5 mM NAD+
[2] = 100 μM compound, 0.1 mM FdL-1 peptide, 0.5 mM NAD+

Molecule	Effect on the activity of Sirt3 (Sirt3; [1])	Effect on the activity of Sirt2 (Sirt2; [1])	Effect on the activity of Sirt6 (Sirt6; [2])	Effect on the activity of Sirt5 (Sirt5; [2])	Effect on the activity of Sirt3 (Sirt3)	Effect on the activity of Sirt2 (Sirt2)	Effect on the activity of Sirt6 (Sirt6)	Effect on the activity of Sirt5 (Sirt5)
CC(C)c1ccc(C=C2C=C(c3ccc4ccccc4c3)OC2=O)cc1 [CSC9, 3-(4-isopropylbenzylidene)-5-(2-naphthyl)-2(3H)-furanone]	--- (no such effect)	inhibition (significant inhibitory effects (>25% loss of activity))	--- (no such effect)	activation^c				
Cc1cc(C)cc(C(=N)c2ccccc2Cc2cccc3ccccc23)c1 [CSC23, (3,5-dimethylphenyl)(2-(1-naphthylmethyl)phenyl)methanimine]	--- (no such effect)	inhibition (significant inhibitory effects (>25% loss of activity))	--- (no such effect)	--- (no such effect)				
O=C1C=C(Nc2nc(O)cc(C(=O)O)n2)c2ccccc2C1=O [CSC30, 2-((3,4-dioxo-3,4-dihydro-1-naphthalenyl)amino)-6-hydroxy-4-pyrimidinecarboxylic acid]	--- (no such effect)	--- (no such effect)	--- (no such effect)	--- (no such effect)				
O=c1c2ccccc2c2ccccc2c(=O)n1-c1cc2c3ccccc3ccc2c2ccccc12 [CSC31, 6-(6-chrysenyl)-5H-dibenzo[c,e]azepine-5,7(6H)-dione]					--- (key: inhibition: significant inhibitory effects (>25% loss of activity); ---: no such effect)	--- (key: inhibition: significant inhibitory effects (>25% loss of activity); ---: no such effect)	--- (key: inhibition: significant inhibitory effects (>25% loss of activity); ---: no such effect)	--- (key: inhibition: significant inhibitory effects (>25% loss of activity); ---: no such effect)
COc1ccc2c(c1)Cc1cc(/N=[N+](\[O-])c3ccc4c(c3)Cc3cc(OC)ccc3-4)ccc1-2 [CSC32, 1-hydroxy-1,2-bis(7-methoxy-9H-fluoren-2-yl)-1^5-diazene]	--- (no such effect)	inhibition (significant inhibitory effects (>25% loss of activity))	--- (no such effect)	--- (no such effect)				
O=C(C[n+]1ccc2ccccc2c1)c1ccc2ccc3ccccc3c2c1 [CSC10, 2-(2^5-isoquinolin-2-yl)-1-(3-phenanthryl)ethanone]					inhibition (key: inhibition: significant inhibitory effects (>25% loss of activity); ---: no such effect)	inhibition (key: inhibition: significant inhibitory effects (>25% loss of activity); ---: no such effect)	inhibition (key: inhibition: significant inhibitory effects (>25% loss of activity); ---: no such effect)	--- (key: inhibition: significant inhibitory effects (>25% loss of activity); ---: no such effect)
O=C1c2ccccc2C(=O)N1c1ccc(Cc2ccc(N3C(=O)c4ccccc4C3=O)cc2)cc1 [CSC20, 2-(4-(4-(1,3-dioxo-1,3-dihydro-2H-isoindol-2-yl)benzyl)phenyl)-1H-isoindole-1,3(2H)-dione]	--- (no such effect)	--- (no such effect)	--- (no such effect)	--- (no such effect)				
O=C1c2ccccc2C(=O)c2c(NC(=O)c3ccc4c5c(ncnc35)-c3ccccc3C4=O)cccc21 [CSC36, N-(9,10-dioxo-9,10-dihydro-1-anthracenyl)-7-oxo-7H-benzo[e]perimidine-4-carboxamide, (Pigment Yellow 108)]	--- (no such effect)	--- (no such effect)	--- (no such effect)	--- (no such effect)				
7-(1-naphthyl)-7^5-dibenzo[a,j]phenazin-5-amine compound with 7-(1-naphthyl)-7^5-dibenzo[a,j]phenazine-5,9-diamine (1:1), (Sudan Red) [CSC1]	inhibition (significant inhibitory effects (>25% loss of activity))	inhibition^a (significant inhibitory effects (>25% loss of activity))	inhibition (significant inhibitory effects (>25% loss of activity))	inhibition (significant inhibitory effects (>25% loss of activity))				
O=C1c2cc([N+](=O)[O-])ccc2-c2ccc3c4ccc5c6c(ccc(c7ccc1c2c73)c64)C(=O)c1cc([N+](=O)[O-])ccc1-5 [CSC14, 3,12bis(hydroxy(oxido)amino)anthra[9,1,2-cde]benzo[rst]pentaphene-5,10-dione, (Amanthrene Supra Black BBN)]					--- (key: inhibition: significant inhibitory effects (>25% loss of activity); ---: no such effect)	inhibition (key: inhibition: significant inhibitory effects (>25% loss of activity); ---: no such effect)	--- (key: inhibition: significant inhibitory effects (>25% loss of activity); ---: no such effect)	inhibition (key: inhibition: significant inhibitory effects (>25% loss of activity); ---: no such effect)
Cc1cc(N2CCOCC2)nc2ccc(Cc3ccc4nc(N5CCOCC5)cc(C)c4c3)cc12 [CSC4, 4-methyl-6-((4-methyl-2-(4-morpholinyl)-6-quinolinyl)methyl)-2-(4-morpholinyl)quinoline]	--- (no such effect)	inhibition (significant inhibitory effects (>25% loss of activity))	--- (no such effect)	--- (no such effect)				
